Assay results reported in a melting point compilation (Tetko et al.).

| Structure (SMILES) | melting point |
| --- | --- |
| COC(=O)CCCCCCCCCCCC(=O)OC | 36 °C |
| BrCOCBr | -34 °C |
| C1CSCSC1 | 54 °C |
| ON=Cc1ccco1 | 78 to 80 °C |
| CCCCCCCCCCCCCCCCCCC(=O)NC | 91 to 94 °C |
| CC(=O)C1CC1 | -68.3 °C |
| N[C@@H](CCCC(=O)O)C(=O)O | 206 °C |
| C#C[C@@]1(O)CC[C@@H]2[C@@H]3CC[C@@H]4CC(=O)CC[C@]4(C)[C@H]3CC[C@@]21C | 220 to 221 °C |
| N#CCCn1cccc(C(F)(F)F)c1=O | 88 to 90 °C |
| CC1NC(=O)C(C)NC1=O (stereo not drawn) | 274 to 278 °C |
| CC12CCC(C(C(=O)O)C1=O)C2(C)C (stereo not drawn) | 128 °C |
| O=c1oc2ccccc2c(O)c1C1CC(c2ccc(-c3ccc(Br)cc3)cc2)Cc2ccccc21 (stereo not drawn) | 230 °C |
| OCCCC#CC#CCCCO | 45.5 to 47 °C |
| O=c1[nH]c(=O)c2cn[nH]c2[nH]1 | 300 °C |
| CN=C(N)c1cc(C(C)(C)C)c(O)c(C(C)(C)C)c1 | 280 to 281 °C |
| CCOP(=O)(OCC)ON1C(=O)c2cccc3cccc(c23)C1=O | 177 °C |
| CC1(C)OC2C(=O)OC(CBr)C2O1 (stereo not drawn) | 85 to 89 °C |
| O=C(c1ccco1)N1CCNCC1 | 68 °C |
| NC(=S)c1cccs1 | 108 °C |
| CCCCCCCCCCCCCCCC(=O)OC(=O)CCCCCCCCCCCCCCC | 64 °C |
| CCCCC(CC)CC | -115 °C |
| CC(C)N(C(=O)SCC(Cl)=C(Cl)Cl)C(C)C | 29 °C |
| COC(=O)C(C)N(C(=O)c1ccco1)c1c(C)cccc1C (stereo not drawn) | 102 °C |

| Structure (SMILES) | melting point |
| --- | --- |
| OCC1OC(O)CC(O)C1O (stereo not drawn) | 150 °C |
| CCOC(=O)CCCCCCCC(=O)OCC | -18.5 °C |
| CC1CCCC(C)C1 (stereo not drawn) | -90.1 °C |
| O=Cc1ccc2nonc2c1 | 58 °C |
| CC1C2CCCC(C2=NNC(N)=S)C2(O)CCCCC12 (stereo not drawn) | 195 °C |
| NC(=O)C1=CNCCC1 | 203 to 205 °C |
| COC(=O)CS(C)(=O)=O | 62 to 63 °C |
| C#CC1(O)CCC2C3CCC4=CC(=O)CCC4=C3C=CC21C (stereo not drawn) | 169 °C |
| CCCCCCCCCCCCC1CCCCC1 | 12.5 °C |
| CC(=O)C12OC1CC1C3CCC4=CC(=O)CCC4(C)C3C(O)CC12C (stereo not drawn) | 206 °C |
| Cc1nc(C=O)c[nH]1 | 165 °C |
| C=CCC1(CC(C)O)C(=O)NC(=O)NC1=O (stereo not drawn) | 158 °C |
| C=CCCCCCCCCCCCCCCCCCCCC | 38 °C |
| O=CCO | 97 °C |
| CCCCCCCC(=O)NO | 78.8 °C |
| FC(F)(F)c1cc(Cl)ccc1I | 29 to 31 °C |
| Cc1oncc1C(=O)O | 147 °C |
| N#Cc1cc(Br)ccc1O | 160 to 162 °C |
| O=CC(F)(F)C(F)(F)C(F)(F)C(F)(F)C(F)(F)C(F)(F)C(F)(F)C(F)(F)Cl | 36 to 38 °C |
| CCCCCCCCOC(=O)CCCCC | -28 °C |
| CC[C@H]1CC[C@H](C(=O)O)CC1 | 50 °C |
| NC(=O)C1CC1(Cl)Cl (stereo not drawn) | 148 to 149 °C |

Next, values leading:

| melting point | Structure (SMILES) |
| --- | --- |
| 196 °C | N#C/C(=N\Nc1cccc(F)c1)c1nc2ccccc2s1 |
| 165 to 166 °C | CC(C)(C)OC(=O)N1CCN(c2ccccc2C(=O)O)CC1 |
| 177 °C | CSC(=Nc1ccccc1)C(C#N)=C(N)SC |
| 127 to 131 °C | NCc1ccccc1O |
| 169 °C | Clc1cccnc1-c1ccnc(Cl)c1Cl |
| 97 °C | Cc1cccc(NC(=O)C(F)(F)C(F)(F)C(F)(F)C(F)(F)C(F)(F)C(F)(F)C(F)(F)C(F)(F)F)c1 |
| 82 to 84 °C | Cc1cc([N+](=O)[O-])ccc1N=C=S |
| 122 °C | O=C(Cc1ccc(-c2ccccc2)cc1)Nc1ccccn1 |
| 260 °C | C=CC=C(C=C1C(=O)NN=C1c1c(O)c2ccccc2n(C)c1=O)C(Cl)=CC |
| 94 °C | CC(=O)NCCc1ccccc1[N+](=O)[O-] |
| 73 to 74 °C | Brc1cccc(-c2cc[nH]n2)c1 |
| -4 °C | CCc1cccc(O)c1 |
| 165 °C | O=[N+]([O-])c1cc([N+](=O)[O-])c(C=Nc2ccccc2)cc1C=Nc1ccccc1 |
| 182 °C | O=[N+]([O-])c1ccccc1C(Br)C(Br)c1ccccn1 (stereo not drawn) |
| 80 to 85 °C | FC(F)(F)c1ccc(-c2nc(CCl)cs2)cc1 |
| 186 °C | CCNc1nc2c(cc1C(=O)OCC)c(=O)oc1ccccc12 |
| 275 °C | N#Cc1c2ncccc2c(=O)n2c1sc1ccccc12 |
| 110 °C | O=C(O)c1c(F)cnc(F)c1F |
| 21 °C | C#Cc1ccc(C)cc1 |
| 287 to 289 °C | NNc1nc(N)nc(-c2ccccn2)n1 |
| 181 to 183 °C | CC1Sc2ccc(Cl)cc2-c2nc(N)ncc21 (stereo not drawn) |
| 157 to 164 °C | Cc1ccccc1CC(NC(=O)OCC1c2ccccc2-c2ccccc21)C(=O)O (racemic) |
| 161 °C | CC(=O)N(Nc1ccc(-c2ccc([N+](=O)[O-])cc2)cc1)c1ccccc1 |
| 232 °C | O=[N+]([O-])c1ccc(Br)c2cccc(C=Nc3ccccc3)c12 |

| melting point | Structure (SMILES) |
| --- | --- |
| 145 °C | CCN(CC)CN1C(=O)C(=Cc2ccco2)SC1=S |
| 152 °C | NN=C1c2ccccc2-c2ccccc21 |
| 215 to 217 °C | Oc1noc2cc(Cl)ccc12 |
| 257 °C | Cc1ccc(Cl)c(Nc2ccccc2C(=O)O)c1Cl |
| 166 °C | CCOC(=O)c1ccc(NC(=O)C(C(F)(F)F)C(F)(F)F)cc1 |
| 77 to 79 °C | O=[N+]([O-])c1ccccc1N1CCCCC1 |
| 202 to 206 °C | O=C(O)c1cccc(-c2cccnc2)c1 |
| 84 to 87 °C | CC(C)(C)P(c1ccccc1-c1ccccc1)C(C)(C)C |
| 285 to 290 °C | O=c1[nH]c2ccc(Br)cc2c(=O)o1 |
| 213 °C | Cn1c(=O)c(C2=NNC(=O)C2=NNc2ccccc2)c(O)c2ccccc21 |
| 269 °C | Cc1ccccc1/C=C(\C#N)c1nc2ccccc2n1C |
| 100 °C | CCOC(=O)C(=Nn1nnc2ccccc21)C(=O)OCC |
| 128 to 131 °C | COc1ccc2nc(C#N)sc2c1 |
| 156 to 158 °C | COc1ccc(Cl)c(OC)c1C(N)=O |
| 133 °C | COc1cc(C=O)c([N+](=O)[O-])cc1OC |
| 88 to 93 °C | COC(=O)CC(=O)c1cncc(Br)c1 |
| 86 to 87 °C | N#Cc1ccc(CN2CCOCC2)cc1 |
| 133 °C | CCOC(=O)C1=NC2Sc3sc(C(=O)OCC)cc3C(c3ccccc3)C2=C1N (stereo not drawn) |
| 60 °C | CCOCCOC(=O)C(C)Oc1ccc(Oc2ncc(C(F)(F)F)cc2Cl)cc1 (stereo not drawn) |
| 81 °C | CCOC(=O)CCC(N[P+]([O-])(OC)C(C)NC(=O)CCCCN1C(=O)c2ccccc2C1=O)C(=O)OCC (stereo not drawn) |
| 209 to 211 °C | COc1ccc(-c2nnc3n2NC(c2ccc([N+](=O)[O-])cc2)S3)cc1 (stereo not drawn) |
| 239 °C | NS(=O)(=O)c1cc2c(cc1Cl)NC(Cc1ccc(F)cc1)NS2(=O)=O (stereo not drawn) |
| 83 to 85 °C | Brc1ccc(-c2ccccc2)s1 |
| 300 °C | Cn1c(N)c(N=O)c(=O)[nH]c1=O |
